Measured values: PubChem BioAssay (NCI)
Values joined by “and” are separate entries in the source; they are usually repeats but may differ in a detail not shown here. Equal values may be shown once.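 Cultured in 96-well plates, cells were exposed to test compound for 48 hours across five concentrations. The concentration for 50% growth inhibition is given as GI50. TGI is the concentration that stops growth completely.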

Columns and labels:
Test in all cases: DTP human tumour cell line panel, 48 h
[1] = test system: HOP-62 NSCLC
[2] = test system: UACC-257 melanoma
[3] = test system: CCRF-CEM leukemia
[4] = test system: SF-268 CNS
[5] = test system: KM12 colon
[6] = test system: RPMI-8226 leukemia
[7] = test system: U251 CNS
[8] = test system: A549 NSCLC
[9] = test system: CAKI-1 renal
[10] = test system: SNB-19 CNS

| SMILES | TGI [1] | TGI [2] | TGI [3] | TGI [4] | TGI [5] | TGI [6] | TGI [7] | TGI [8] | TGI [9] | TGI [10] | GI50 [1] | GI50 [2] | GI50 [3] | GI50 [4] | GI50 [5] | GI50 [6] | GI50 [7] | GI50 [8] | GI50 [9] | GI50 [10] |
| --- | --- | --- | --- | --- | --- | --- | --- | --- | --- | --- | --- | --- | --- | --- | --- | --- | --- | --- | --- | --- |
| COC1OC(C)C(OCc2ccccc2)C(OS(=O)(=O)c2ccc(C)cc2)C1OS(=O)(=O)c1ccc(C)cc1 (stereo not drawn) | > 100 µM | > 100 µM | > 100 µM | > 100 µM | > 100 µM | > 100 µM | > 100 µM | > 100 µM | > 100 µM | > 100 µM |  |  |  |  |  |  |  |  |  |  |
| Cn1cc(-c2csc(-c3cn(C)c4ccccc34)n2)c2cnccc21 | 3.85 µM | 3.5 µM | 3.86 µM | 3.92 µM | 2.48 µM | 4.06 µM | 3.45 µM | 5.01 µM | 9.12 µM | 3.28 µM | 1.67 µM | 1.94 µM | 1.78 µM | 1.92 µM | 1 µM | 1.76 µM | 1.86 µM | 2.38 µM | 2.58 µM | 1.76 µM |
| C[C@H](Cn1ncnn1)Nc1ncc2cc(Oc3ccc(F)cc3F)c(=O)n(C)c2n1 | > 25 µM | > 25 µM | > 25 µM | > 25 µM | > 25 µM | > 25 µM | > 25 µM | > 25 µM | > 25 µM | > 25 µM | > 25 µM | > 25 µM | > 25 µM | > 25 µM | > 25 µM | > 25 µM | > 25 µM | > 25 µM | > 25 µM | > 25 µM |
| CC(=O)OC1COC(n2c(=S)n(-c3ccccc3)c(=O)c3cc(Br)ccc32)C(OC(C)=O)C1OC(C)=O (stereo not drawn) | 47.5 µM | > 100 µM | > 100 µM | > 100 µM | > 100 µM | > 100 µM | 44.5 µM | > 100 µM | > 100 µM | 77.3 µM |  |  |  |  |  |  |  |  |  |  |
| CCOC1Oc2ccccc2-c2oc(=O)c(Sc3ccc(C)cc3)cc21 (stereo not drawn) | > 100 µM | 45.8 µM | 50.2 µM | 75.8 µM | > 100 µM | 35.5 µM | > 100 µM | 59 µM | > 100 µM | > 100 µM | 58.5 µM | 11.8 µM | 14.5 µM | 27.9 µM | 34.4 µM | 9.66 µM | 25.1 µM | 19.3 µM | 35.4 µM | 29.1 µM |
| Cc1ccc2nc3c(Cl)c(C)c(=O)cc-3sc2c1 | > 100 µM | > 100 µM | > 100 µM | > 100 µM | > 100 µM | > 100 µM | > 100 µM | > 100 µM | > 100 µM | > 100 µM | 47.8 µM | 78.4 µM | 30.5 µM | 43.6 µM | 78 µM |  | 45.1 µM |  | > 100 µM | > 100 µM |
| CC(=O)N(C(C)=O)C1=C2c3ccccc3N(S(=O)(=O)c3ccccc3)C2n2c(=O)n(-c3ccccc3)c(=O)n2C1 (stereo not drawn) | > 100 µM | > 100 µM | > 100 µM | > 100 µM | > 100 µM | 40.2 µM | > 100 µM | > 100 µM | > 100 µM | > 100 µM |  |  |  |  |  |  |  |  |  |  |
| CC1(C)N=C(N)N=C(N)N1c1ccc(OCC(=O)Nc2ccccc2)c(Cl)c1 | > 100 µM | > 100 µM | > 100 µM | > 100 µM | > 100 µM | > 100 µM | > 100 µM | > 71.8 µM | > 100 µM | > 100 µM | 5.77 µM | > 25.4 µM | 2.17 µM | 0.677 µM | 0.842 µM | 9.89 µM | 0.674 µM | 0.0916 µM | > 85.9 µM | 28.8 µM |
| c1ccc2nc3c(cc4ccccn43)nc2c1 | 74.1 µM | > 100 µM | > 100 µM | > 100 µM | > 100 µM | > 100 µM | > 100 µM | > 100 µM | > 100 µM | > 100 µM | 18.9 µM | > 100 µM | > 100 µM | > 100 µM | 26.6 µM | > 100 µM | 39.9 µM | 77.4 µM | 55.2 µM | > 100 µM |
| O=C1C(SCCO)=C(SCCO)C(=O)c2ccccc21 | 3.77 µM | 2.59 µM | 4.8 µM | 3.21 µM | 3.76 µM | 3.09 µM | 2.01 µM | 3.7 µM | 4.24 µM | 3.23 µM |  |  |  |  |  |  |  |  |  |  |
| CCC1=C[C@@H]2CN(C1)Cc1c([nH]c3ccccc13)[C@@](C(=O)OC)(c1cc3c(cc1OC)N(C)[C@H]1[C@@](O)(C(=O)OC)[C@H](OC(C)=O)[C@]4(CC)[C@@H]5C[C@@H]5CN5CC[C@]31[C@@H]54)C2 | 6.94 µM and 16.7 µM | 7.53 µM and 15.6 µM |  | 8.94 µM and 12.8 µM | 6.54 µM and 11.1 µM | 0.656 µM | 0.671 µM | 5.95 µM and 12.2 µM | 6.17 µM and 20.5 µM | 19.2 µM and 35.1 µM | < 0.005 µM |  | < 0.005 µM | < 0.005 µM and 0.0151 µM | < 0.005 µM | < 0.005 µM | < 0.005 µM | < 0.005 µM | 0.0319 µM and 0.0818 µM |  |
| CC(=O)[CH-]C(C)=O.[CH2-]C.[CH2-]C.[Tl+3] | > 100 µM | > 100 µM | > 100 µM | > 100 µM | > 100 µM | > 100 µM | > 100 µM | > 100 µM | > 100 µM | > 100 µM | > 100 µM | > 100 µM | > 100 µM | > 100 µM | > 100 µM | > 100 µM | > 100 µM | > 100 µM | > 100 µM | > 100 µM |
| Cc1ccc(S(=O)(=O)N/N=C(\c2nc3ccc([N+](=O)[O-])cc3[nH]c2=O)C(O)c2ccccc2Cl)cc1 (stereo not drawn) | > 100 µM | > 100 µM | > 100 µM | > 100 µM | > 100 µM | > 100 µM | > 100 µM | > 100 µM | > 100 µM | > 100 µM |  |  |  |  |  |  |  |  |  |  |
| NC(=O)C1(N2CCCCC2)CCN(CCCC(=O)c2ccc(F)cc2)CC1 | > 100 µM | > 100 µM |  | > 70.9 µM | 67.6 µM | > 100 µM | > 100 µM | > 100 µM | > 100 µM | > 100 µM | 3.41 µM |  | 0.121 µM | 2.6 µM | 1.39 µM | 0.208 µM | 0.263 µM | 10.4 µM | 26.6 µM | 2.86 µM |
